Several values for one entry are separate records, joined by “and”; a condition that tells them apart may be missing. Identical values can stand only once.
Tests used:
[1] = system: LPS-induced acute respiratory distress syndrome; experiment: BALF neutrophil count and percentage, LPS-induced ARDS rat model (Example 1); format: in vivo, SD rats
Protocol: (§1) Normal adult male SD rats were randomly grouped, 5 rats in each group. The animals were intraperitoneally injected and nebulized in the trachea with lipopolysaccharides (LPS) as a modeling reagent, as shown in Table 1:
(§2) The animals in groups G1 and G2 were intraperitoneally injected with lipopolysaccharides (0.8 mg/kg. body weight) according to their body weight, anesthetized by inhaling isoflurane after 16 h of the intraperitoneal injection, and nebulized with lipopolysaccharides (5 mg/kg. body weight) in the trachea.
Intraperitoneal injection with lipopolysaccharides (LPS): According to the body weight of the animals, each animal was administered with lipopolysaccharides by intraperitoneal injection with a disposable micro syringe.
Intratracheal nebulization with lipopolysaccharides (LPS): Each animal was anesthetized by inhaling isoflurane and then fixed on a rat fixator placed at a 45° angle, the root of the animal's tongue was pressed by a small animal anesthesia laryngoscope to expose the glottis, a pulmonary micro liquid nebulizer needle (blunt) that extracted a quantitative solution of LPS was gently inserted into the trachea, then the piston was quickly pushed to atomize the LPS solution into the lung, the needle was quickly pulled out, and the animal was taken down from the fixator and rotated left and right with its head facing upwards to distribute LPS as evenly as possible in each lung lobe.
(§3) The animals were administered for the first time within 1 h after the intratracheal nebulization with the modeling reagent (LPS), and the second time after 24 h.
The day after the end of the second administration (48 h after the intratracheal nebulization with the modeling reagent).
Collection of samples: On the day after the second administration, all groups of animals were euthanized with CO2, then their abdominal cavities were opened, and their abdominal arteries were cut for bleeding. […] Precipitated cells were re-suspended with 1 ML PBS, and total cells in the BALF were counted by a blood cell counter and trypan blue staining. […]

[2] = Body weight of rats after LPS modeling (Example 1); format: in vivo
Protocol: as §1, §2, §3
Before grouping, the animals were weighed on the day of modeling and the day of administration of samples; and the animals were also weighed when they were found dead or on the brink of euthanasia.

[3] = system: rats with a lung injury; experiment: BALF white blood cell count and classification (Example 2); format: in vivo, Sprague-Dawley rats; conditions: D3, 0.75 mg/kg i.v. twice, 6 rats, x ± SD
Protocol: (§4) D0: The animals in the normal control group were intraperitoneally injected with sodium chloride injection (1 ml/kg), while the animals in other groups were intraperitoneally injected with lipopolysaccharides (1 mg/kg, 1 ml/kg).
(§5) D1: After 16 h (+30 min) of intraperitoneal injection, the animals were anesthetized by inhaling isoflurane. The animals in the normal control group were nebulized with sodium chloride injection (1 mL/kg) in the trachea, while the animals in other groups were nebulized with lipopolysaccharides (5 mg/kg, 1 ml/kg) in the trachea.
Administration frequency and duration: On D1, the animals were administered for the first time within 3 h after the intratracheal nebulization with the modeling reagent (LPS); and on D2, the animals were administered for the second time. The interval between the two administrations was about 24 h (+20 min).
Sample collection: After the animals were euthanatized, the skin and tissues of the neck and chest were incised to expose the trachea, bronchi, and lungs. The bronchi in the right lung were separated and ligated. A suture was threaded under the trachea, a ½ incision was made between cartilage rings of the trachea at an appropriate position under the thyroid cartilage, a trachea cannula was slowly inserted along the incision into the airway to a left bronchus, and the inserted cannula was fastened with the trachea by using the threaded suture at an appropriate position in a centripetal direction of the incision. 3 ml of PBS buffer was slowly injected with a syringe for bronchoalveolar lavage. The lavage was repeated 3 times, with each remaining for about 10 seconds. The lavage solution was collected into a centrifuge tube of appropriate capacity.
BALF treatment: The collected lavage solution was centrifuged at 4° C. and approximately 2000 rpm for 20 min. The supernatant was stored below −60° C. for later use. The precipitate was re-suspended with I mL of PBS buffer for count and classification of white blood cells. The supernatant after BALF centrifugation was managed as a sample by using a Watson LIMS7.5 system.
Classification and test of white blood cells: White blood cells in the re-suspended BALF were counted and classified by a fully automatic blood cell analyzer.

[4] = system: rats with a lung injury; experiment: Survival test, LPS lung injury rats (Example 2); format: in vivo, Sprague-Dawley rats; conditions: test sample group, 0.75 mg/kg intravenous, 6 rats
Protocol: Animal grouping: 18 qualified male animals were randomly divided into a normal control group, a model control group, and a test sample group according to their body weight measured before grouping, with 6 animals per group.
as §4, §5
D1: About 3 h to 5 h after the intratracheal nebulization of the modeling reagent (LPS), the animals were administrated with the test sample or solvent according to the following table 8: […]
After planned euthanasia, a rate of a quantity of live animals in each group to a total quantity of animals in each group in an experimental period was calculated.
Survival rate (%)=the quantity of live animals in a group/the total quantity of animals in the group×100%.

[5] = system: LPS-induced acute respiratory distress syndrome; experiment: Histopathological examination of lung, HE staining, LPS-induced ARDS rat model (Example 1); format: in vivo, SD rats; set-up: key to Pulmonary pathological score, Inflammation, Sited 1 / Pulmonary pathological score, Inflammation, Sited 2 / Pulmonary pathological score, Inflammation, Sited 3 / Pulmonary pathological score, Alveolar wall thickness, Sited 1 / Pulmonary pathological score, Alveolar wall thickness, Sited 2 / Pulmonary pathological score, Alveolar wall thickness, Sited 3: 0: NA; 1: Slight; 2: Moderate; 3: Severe; Pulmonary pathological score, Mean of total / Pulmonary pathological score, Inflammation, Mean / Pulmonary pathological score, Alveolar wall thickness, Mean / Pulmonary pathological score, Total: scale not given here
Protocol: as §1, §2, §3
After the bronchoalveolar lavage fluid was collected from all the animals, the chest cavity was opened to take the right lung. The lung was infused with formalin by using an injection needle, fixed in a 10% neutral buffer formalin solution, followed by paraffin embedding, slicing, section preparation, and HE staining for pathological morphological observation of lung tissues. Professional pathologists carried out pathological testing on the lung tissues.

[6] = G2 compared to model control group G1
[7] = G2 mean, 5 rats, 1 mg/kg caudal vein injection twice, 48 h after LPS nebulization
[8] = mean of 3 sites per animal G2-1 to G2-5, 1 mg/kg
[9] = single animals G2-1 to G2-5, 1 mg/kg, score 0-3

## Annexin A5
[1]; [6]
  Effect on count of neutrophils (Neu cells) in the BALF: significantly inhibited
[1]; [7]
  Neu cell counts in the BALF: 7.03 *10^6
  Percentages of Neu cells in the BALF: 36.80%
[2]; G2 mean, 5 rats, 1 mg/kg caudal vein injection, Day 0
  Body weight, Day 0: 254.49 g
[2]; G2 mean, 5 rats, 1 mg/kg caudal vein injection, Day 1
  Body weight, Day 1: 240.80 g
[2]; G2 mean, 5 rats, 1 mg/kg caudal vein injection, Day 2
  Body weight, Day 2: 224.36 g
[2]; G2 mean, 5 rats, 1 mg/kg caudal vein injection, Day 3
  Body weight, Day 3: 241.86 g
[2]; after LPS modeling, G2 vs G1
  Body weight compared between groups: no significant difference between the groups
[3]
  Lymphocytes in BALF: 0.58 ± 0.22 ×10^9 cells/L
  Monocytes in BALF: 0.38 ± 0.47 ×10^9 cells/L
  Neutrophils in BALF: 2.54 ± 2.07 ×10^9 cells/L
  White blood cell in BALF: 3.63 ± 2.05 ×10^9 cells/L
[4]
  Survival rate: 100%
[5]; [6]
  Effect on LPS-induced acute respiratory distress syndrome (pathological analysis): significant improvement
  Lung injury in stained pathological sections (FIG. 4): significantly improved
[5]; group G2, 5 rats, 1 mg/kg
  Pulmonary pathological score, Mean of total: 2.33
[5]; [8]
  Pulmonary pathological score, Alveolar wall thickness, Mean: 0.67 (3×) and 1.00 and 1.33
  Pulmonary pathological score, Inflammation, Mean: 1.67 and 2.00 and 1.33 (2×) and 1.00
[5]; per animal G2-1 to G2-5, 1 mg/kg
  Pulmonary pathological score, Total: 2.33 (2×) and 3.00 and 2.00 (2×)
[5]; [9]
  Pulmonary pathological score, Alveolar wall thickness, Sited 1: 0 (2×) and 1 (2×) and 2
  Pulmonary pathological score, Alveolar wall thickness, Sited 2: 1 (4×) and 2
  Pulmonary pathological score, Alveolar wall thickness, Sited 3: 1 (3×) and 0 (2×)
  Pulmonary pathological score, Inflammation, Sited 1: 2 (2×) and 1 (3×)
  Pulmonary pathological score, Inflammation, Sited 2: 2 and 3 and 1 (3×)
  Pulmonary pathological score, Inflammation, Sited 3: 1 (3×) and 2 (2×)

From US20240189388A1, “MEDICATION FOR TREATING LUNG INJURY” (SHANGHAI SEME CELL TECHNOLOGY CO., LTD., priority 2021, published 2024)
